# “Also recorded” adds a separate entry of the source.
# What was measured:
# [1] = test system: patients undergoing cardiac surgery on cardiopulmonary bypass (CPB); experiment: CS007 trial: short and long term efficacy signals and safety of AP214 in patients undergoing cardiac surgery on cardiopulmonary bypass; type: in vivo, human; conditions: for average serum creatinine values over time: through 168 hours post surgery; for outcomes as measured by the composite endpoint (all cause death, RRT, kidney function): 90 day post-operative period, vs placebo; for population distribution of extreme serum creatinine values: highest quartile; for kidney function as measured by estimated GFR: seven day post-operative period
# Description: The CS007 trial was designed to study both short and long term efficacy signals (FIG. 5).
# Primary Aims • Safety: Safety and tolerability vs. placebo • Efficacy: Max post-operative change in absolute values of SCr compared to baseline within the first 7 days after surgery or until discharge from hospital, whichever comes first vs. placebo.
# Secondary Aims • Composite: • Assess the proportion of patients reaching the composite endpoint of death, need for RRT or a 25% reduction in renal function over a 90 day post-operative period vs. placebo. • AKIN: Assess post-operative incidence of AKI within 48 hours post-surgery • RIFLE: Assess post-operative incidence of AKI within first 7 days post-surgery. • SCr: Changes between surgery and postoperative day 7. • GFR: Changes at day 90 compared to baseline. • eGFR: Changes between surgery and postoperative day 7
# Each dosage was provided over a period of 10 minutes. As used throughout this disclosure and unless specified otherwise, “μg/kg” refers to μg AP214 per kg bodyweight of the patient being treated.
# Moreover, in the same double-blind study described in this Example, patients undergoing cardiac surgery on cardiopulmonary bypass (CPB) were randomized to placebo (PBO; n=26), AP214 given at either 600 μg/kg (n=25), or 800 μg/kg (n=26), divided into 3 bolus infusions at the predetermined intervals as described above. AKI was determined according to AKIN and RIFLE scores.
# [2] = test system: patients undergoing cardiac surgery; experiment: Prevention of AKI by different dosage regimes of AP214 in patients undergoing cardiac surgery (CS005 protocol); type: in vivo, human
# Procedure: Each of 12 patients undergoing cardiac surgery (the AP214 group) was dosed with 600 μg/kg AP214: 200 μg/kg at skin incision, 200 μg/kg at cross clamp release, and 200 μg/kg 6-hour after cross clamp release. Each dosage was provided over a period of 10 minutes. The placebo group included 13 patients undergoing cardiac surgery without AP214 infusion.
# Objectives • trial objective was to assess the effect of AP214 on • 1) changes in serum creatinine, cystatin-C and carbamade, • 2) on eGFR and • 3) on the development of post-surgical acute kidney injury (AKI) • AKI also assessed (post-hoc analysis) by AKIN and RIFLE
# Three different definitions of AKI were tested: • 1) 3 patients in the AP214 group developed AKI, in contrast to 7 patients in the placebo group who developed AKI. AKI is defined as in the CS005 protocol: • An absolute increase in serum creatinine of more than or equal to 26.4 μmol/l (0.3 mg/dl) or • A percentage increase in serum creatinine of more than or equal to 50% (1.5-fold from baseline) from Day 0-14 and/or • Urine output less than 0.5 mL/kg per hour for more than 6 hours. • 2) AKI according to the AKIN score as presented in FIG. 3a, and • 3) AKI according to the RIFLE score as presented in FIG. 3b.
# [3] = test system: pigs after induction of complete warm ischemia in the kidney; conditions: 200 μg/kg, 10 ml i.v. bolus during 1 minute, seven doses; cited from earlier work
# subjects = experiment: Evaluation of rate of infusion of AP214 (CS002); type: in vivo, human
# Procedure: To establish a suitable rate of infusion of AP214 a set of patient trials were performed.
# AP214 isotonic solution single ascending doses (25, 50 and 100 μg/kg) for intravenous infusion administered over 10 minutes, or placebo (saline infusion).
# AP214 isotonic solution single doses (100 μg/kg over 1 minute; 100 μg/kg over 30 seconds; 200 μg/kg over 30 seconds) for intravenous infusion.
# [4] = 600 μg/kg bodyweight (3×200 μg/kg), i.v. over 10 min each, vs placebo
# [5] = 600 μg/kg bodyweight, vs placebo
smiles,measurement,setting,value
"CSCC[C@H](NC(=O)[C@H](CO)NC(=O)[C@H](Cc1ccc(O)cc1)NC(=O)[C@H](CO)NC(=O)[C@H](CCCCN)NC(=O)[C@H](CCCCN)NC(=O)[C@H](CCCCN)NC(=O)[C@H](CCCCN)NC(=O)[C@H](CCCCN)NC(=O)[C@H](CCCCN)NC(C)=O)C(=O)N[C@@H](CCC(=O)O)C(=O)N[C@@H](Cc1c[nH]cn1)C(=O)N[C@@H](Cc1ccccc1)C(=O)N[C@@H](CCCNC(=N)N)C(=O)N[C@@H](Cc1c[nH]c2ccccc12)C(=O)NCC(=O)N[C@@H](CCCCN)C(=O)N1CCC[C@H]1C(=O)N[C@H](C(N)=O)C(C)C [AP214, Acetyl-Lysyl-L-lysyl-L-lysyl-L-lysyl-L-lysyl-L-lysyl-L-seryl-L-tyrosyl-L-seryl-L-methionyl-Lglutamyl-L-histidyl-L-phenylalanyl-L-arginyl-L-tryptophanyl-glycyl-L-lysyl-L-prolyl-L-valine amide]",average serum creatinine values over time,[1]; 600 μg/kg (3×200 μg/kg),decreased average serum creatinine; also recorded: decreasing average serum creatinine values over time
same,"outcomes as measured by the composite endpoint (all cause death, RRT, kidney function)",[1]; 600 μg/kg,reduction in outcomes with the 600 μg/kg dosage showing statistical significance; also recorded: reduction in negative outcomes
same,population distribution of extreme serum creatinine values,[1]; 600 μg/kg,reduction in serum creatinine values at the highest quartile
same,kidney function as measured by estimated GFR,[1]; 600 μg/kg,increased kidney function
same,degrees of acute kidney injury compared to placebo,[1]; 800 μg/kg,lesser degrees of acute kidney injury
same,patients scored as AKI by AKIN and RIFLE criteria,[1]; 800 μg/kg,decrease in patients scored as AKI
same,average serum creatinine values over time,"[1]; 800 μg/kg (1×200, 1×400, 1×200 μg/kg)",decreased average serum creatinine; also recorded: decreasing average serum creatinine values over time
same,GFR change (reduction) at Day 90 compared to baseline,"[1]; 800 μg/kg vs. placebo, Danish sites only",significantly lower GFR change (reduction)
same,"outcomes as measured by the composite endpoint (all cause death, RRT, kidney function)",[1]; 800 μg/kg,reduction in negative outcomes
same,incidence of AKI compared with PBO by surgery type,"[1]; 800 μg/kg, combined CABG and valve surgery, multiple valve surgery, chronic kidney disease and CABG (or valve surgery)",numerically lower incidence of AKI
same,population distribution of extreme serum creatinine values,[1]; 800 μg/kg,reduction in serum creatinine values at the highest quartile
same,kidney function as measured by estimated GFR,[1]; 800 μg/kg,increased kidney function
same,safety and tolerability,"[1]; 600 and 800 μg/kg, each dosage over 10 minutes",safe and well tolerated
same,prevention of AKI as compared to the placebo,"[2]; 150 μg/kg bodyweight (3×50 μg/kg), same dosing scheme",showed no prevention of AKI
same,patients who developed AKI (AKI as defined in the CS005 protocol),"[2]; 600 μg/kg (3×200 μg/kg), AP214 group of 12 patients, Day 0-14",3 patients
same,development of AKI according to the RIFLE score and AKIN scores,[2]; 600 μg/kg bodyweight (3×200 μg/kg),demonstrated prevention in the development of AKI
same,decrease in eGFR,[2]; [4],prevented a decrease in eGFR
same,increase in serum creatinine,[2]; [4],prevented
same,increase in carbamide,[2]; [5],prevented
same,increase in cystatin C,[2]; [5],prevented an increase in cystatin C
same,renoprotective effect,[3],provides a renoprotective effect
same,adverse events relative to 100 μg/kg over 30 sec and 1 minute,subjects; 200 μg/kg over 30 seconds,more adverse events
same,subjects reporting erythema,"subjects; Group 2 (n=6), short infusion times",6 subjects
same,adverse events,"subjects; Group 2 (n=6), short infusion times: 100 μg/kg over 1 minute, 100 μg/kg over 30 seconds, 200 μg/kg over 30 seconds, i.v.",large number of adverse events
same,episodes of vomiting in one subject,"subjects; Group 2, short infusion times",8 episodes
same,tolerability,subjects; fast infusion rates,not well tolerated
same,adverse effects,"subjects; slower infusion rate, 100 μg/kg over 10 minutes",did not show these adverse effects
same,tolerability,"subjects; slower infusion rates (e.g., 10 minutes)",better tolerated
